Reference: patent publication US20220009894A1, “1,2,3,4-TETRAHYDROQUINOXALINE DERIVATIVE, PREPARATION METHOD THEREFOR AND APPLICATION THEREOF” (Abbisko Therapeutics Co., Ltd., priority 2019, published 2022)
pEC50: −log10 of the molar value.

Tests used:
RORγt-LBD = molecular target: T1, RORγt-LBD (Homo sapiens, UniProt P51449); test: Time-resolved fluorescence resonance energy-transfer assay (TR-FRET), co-activator peptide recruitment; format: biochemical; design: TR-FRET Biochemical Amax: unit not given here; details: for pEC50: His-RORγt-LBD 30 nM, SRC peptide 500 nM, agonistic activity, averages of one or more measurements, read-out: TR-FRET Biochemical EC50/; for TR-FRET Biochemical Amax: upper activation limit, His-RORγt-LBD, SRC peptide
T1 sequence (P51449 269-508 limits assumed): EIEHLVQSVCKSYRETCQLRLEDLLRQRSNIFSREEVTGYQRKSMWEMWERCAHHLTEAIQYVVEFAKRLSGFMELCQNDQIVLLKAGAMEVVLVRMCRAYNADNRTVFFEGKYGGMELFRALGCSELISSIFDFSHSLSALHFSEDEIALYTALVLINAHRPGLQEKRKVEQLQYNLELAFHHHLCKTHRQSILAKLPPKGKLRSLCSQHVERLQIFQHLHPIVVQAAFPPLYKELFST
Outline: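 Eu-anti-His-labelled His-RORγt-LBD (30 nM final) recruits biotin-SRC co-activator peptide (500 nM final), detected via APC-streptavidin (5 nM) and Eu-anti-His (0.25 nM). Buffer was Tris/KCl/EDTA at pH 7.0 with 0.01% Triton X-100 and 1 mM DTT. Compounds were tested at 7 points in 5-fold dilutions. Plates were incubated overnight at 4 °C then 1 h at RT, and agonism was read as the 665/615 nm ratio.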

RORγt = molecular target: T2, RORγt (Homo sapiens, UniProt P51449); test: RORγt cellular reporter gene detection assay; format: cell-based; details: 24 hrs; for pEC50: HEK 293 cells co-transfected with pFN26A-RORγt-LBD and pG14.35, in presence of antagonist Ursolic acid, top concentration 50 μM; for Cellular Reporter Assay Amax: upper activation limit, HEK 293 cells, in presence of antagonist Ursolic acid;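 for Cellular Reporter Assay Amax: Ursolic Acid added as 5 µL of 20 µM medium per well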
T2 construct: The plasmid of pFN26A-RORγt-LBD and pG14.35 (Promega, Cat. No. E1370) were co-transfected into HEK 293 cells; expressed in transfected cells; host or cells: HEK 293 cells (Cat. No. GNHu18)
T2 sequence (P51449 269-508 limits assumed): T1 sequence (P51449 269-508 limits assumed)
Outline: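 HEK293 cells co-transfected with RORγt-LBD and luciferase reporter plasmids, treated with Ursolic acid antagonist plus compound in 4-fold dilutions from 50 μM for 24 h at 37° C. Firefly and Renilla luminescence read; EC50 and Amax from four-parameter fit.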

pEC50 (RORγt-LBD) | pEC50 (RORγt) | TR-FRET Biochemical Amax (RORγt-LBD) | Cellular Reporter Assay Amax (RORγt) | Structure (SMILES)
7.98 | 6.43 |  |  | COC(=O)CN1CCN2c3ccc(/C=C/c4c(Cl)cccc4C(F)(F)F)cc3N(S(=O)(=O)c3cccc(C(F)(F)F)c3)C[C@@H]2C1 [Example 45, methyl (S,E)-2-(8-(2-chloro-6-(trifluoromethyl)styryl)-6-((3-(trifluoromethyl)phenyl)sulfonyl)-1,2,4,4a,5,6-hexahydro-3H-pyrazino[1,2-a]quinoxalin-3-yl) acetate]
7.69 | 6.43 | 0.86 | 1.8 | COC(=O)CN1CCN2c3ccc(-c4cc(F)cc(OC(F)F)c4)cc3N(S(=O)(=O)c3cc(C(F)(F)F)cnc3OCCO)C[C@@H]2C1 [Example 90, methyl (S)-2-(8-(3-(difluoromethoxy)-5-fluorophenyl)-6-((2-(2-hydroxyethoxy)-5-(trifluoromethyl)pyridin-3-yl)sulfonyl)-1,2,4,4a,5,6-hexahydro-3H-pyrazino[1,2-a]quinoxalin-3-yl)acetate]
7.76 | 6.84 | 1.45 | 3.7 | CC(=O)N1CCN2c3ccc(-c4cc(F)cc(OC(F)F)c4)cc3N(S(=O)(=O)c3cccc(C(F)(F)F)c3)C[C@@H]2C1 [Example 7, (S)-1-(8-(3-(difluoromethoxy)-5-fluorophenyl)-6-((3-(trifluoromethyl)phenyl)sulfonyl)-1,2,4,4a,5,6-hexahydro-3H-pyrazino[1,2-a]quinoxalin-3-yl)ethan-1-one]
6.74 | ≤ 4.30 | 0.50 |  | CC(C)(C)OC(=O)C(C)(C)N1CCN2c3ccc(/C=C/c4c(Cl)cccc4C(F)(F)F)cc3N(S(=O)(=O)c3cccc(C(F)(F)F)c3)C[C@@H]2C1 [Example 52, tert-butyl (S,E)-2-(8-(2-chloro-6-(trifluoromethyl)styryl)-6-((3-(trifluoromethyl)phenyl)sul-fonyl)-1,2,4,4a,5,6-hexahydro-3H-pyrazino[1,2-a]quinoxalin-3-yl)-2-methylpropanoate]
7.32 | 6.25 | 0.80 | 2.7 | NC(=S)N1CCN2c3ccc(-c4cc(F)cc(OC(F)F)c4)cc3N(S(=O)(=O)c3cccc(C(F)(F)F)c3)C[C@@H]2C1 [Example 64, (S)-8-(3-(difluoromethoxy)-5-fluorophenyl)-6-((3-(trifluoro-methyl)phenyl)sulfonyl)-1,2,4,4a,5,6-hexahydro-3H-pyrazino [1,2-a]quinoxaline-3-carbo-thioamide]
7.52 | 7.16 | 0.89 | 3.1 | CC(=O)N1CCN2c3ccc(/C=C/c4c(Cl)cccc4C(F)(F)F)cc3N(S(=O)(=O)c3cccc(C(F)(F)F)c3)C[C@@H]2C1 [Example 14, (S,E)-1-(8-(2-chloro-6-(tri-fluoromethyl)styryl)-6-((3-(trifluoromethyl)phenyl)sul-fonyl)-1,2,4,4a,5,6-hexa-hydro-3H-pyrazino[1,2-a]quinoxalin-3-yl)ethan-1-one]
7.17 | 6.75 | 0.71 | 5.4 | O=C(O)CCO[C@@H]1CCN2c3ccc(-c4cc(F)cc(OC(F)F)c4)cc3N(S(=O)(=O)c3cccc(C(F)(F)F)c3)C[C@@H]2C1 [Example 115, 3-(((6aS,8R)-3-(3-(difluorometh-oxy)-5-fluorophenyl)-5-((3-(tri-fluoromethyl)phenyl)sulfonyl)-6,6a,7,8,9,10-hexahydro-5H-pyrido[1,2-a]quinoxalin-8-yl)oxy)propanoic acid]
7.76 | 5.70 | 0.84 | 6.7 | N#CCC(=O)N1CCN2c3ccc(/C=C/c4c(Cl)cccc4C(F)(F)F)cc3N(S(=O)(=O)c3cccc(C(F)(F)F)c3)C[C@@H]2C1 [Example 29, (S,E)-3-(8-(2-chloro-6-(tri-fluoromethyl)styryl)-6-((3-(trifluoromethyl)phenyl)sulfonyl)-1,2,4,4a,5,6-hexa-hydro-3H-pyrazino[1,2-a]quinoxalin-3-yl)-3-oxopro-panenitrile]
8.28 | 6.64 | 0.61 | 3.9 | CC(C(=O)O)N1CCN2c3ccc(C4=CC(C)(C)OC(C)(C)C4)cc3N(S(=O)(=O)c3cccc(C(F)(F)F)c3)C[C@@H]2C1 (stereo partly drawn) [Example 27, 2-((S)-8-(2,2,6,6-tetrameth-yl-3,6-dihydro-2H-pyran-4-yl)-6-((3-(trifluorometh-yl)phenyl)sulfonyl)-1,2,4,4a,5,6-hexahydro-3H-pyrazino[1,2-a]quinoxalin-3-yl)propanoic acid]
7.71 | 5.86 | 0.79 | 4.0 | CCOC(=O)C(=O)N1CCN2c3ccc(/C=C/c4c(Cl)cccc4C(F)(F)F)cc3N(S(=O)(=O)c3cccc(C(F)(F)F)c3)C[C@@H]2C1 [Example 58, ethyl (S,E)-2-(8-(2-chloro-6-(trifluoromethyl)styryl)-6-((3-(trifluoromethyl)phenyl)sulfonyl)-1,2,4,4a,5,6-hexahydro-3H-pyrazino[1,2-a]quinoxalin-3-yl)-2-oxoacetate]
